IC50 and Ki data for 24 molecules are collected here from ChEMBL document CHEMBL1137137, “A novel series of 2-pyridyl-containing compounds as lysophosphatidic acid receptor antagonists: development of a nonhydrolyzable LPA3 receptor-selective antagonist” (Bioorg Med Chem Lett, 2004).

In assay [1] the target is T1, Lysophosphatidic acid receptor 1 (Homo sapiens, UniProt Q92633). Put plainly: Inhibitory concentration against Lysophosphatidic acid 1 (LPA1) receptor.
The target in assay [2] is T2, Lysophosphatidic acid receptor 3 (Homo sapiens, UniProt Q9UBY5).
T2 sequence (Q9UBY5 whole entry): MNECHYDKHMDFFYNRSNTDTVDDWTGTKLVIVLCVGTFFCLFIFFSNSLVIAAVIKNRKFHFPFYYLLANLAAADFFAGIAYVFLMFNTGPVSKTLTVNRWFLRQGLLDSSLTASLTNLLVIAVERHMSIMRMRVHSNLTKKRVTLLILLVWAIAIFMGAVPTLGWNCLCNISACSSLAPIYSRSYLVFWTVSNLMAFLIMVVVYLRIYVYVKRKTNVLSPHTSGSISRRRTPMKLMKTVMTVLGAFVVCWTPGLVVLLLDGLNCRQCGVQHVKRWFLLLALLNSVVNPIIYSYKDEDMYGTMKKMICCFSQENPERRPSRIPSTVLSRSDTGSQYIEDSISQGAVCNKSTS
In words: Antagonist activity at Lysophosphatidic acid 3 (LPA3) receptor.

In assay [3] the target is T1, Lysophosphatidic acid receptor 1. Put plainly: Binding affinity towards Lysophosphatidic acid 1 (LPA1) receptor.

T1 sequence (Q92633 whole entry): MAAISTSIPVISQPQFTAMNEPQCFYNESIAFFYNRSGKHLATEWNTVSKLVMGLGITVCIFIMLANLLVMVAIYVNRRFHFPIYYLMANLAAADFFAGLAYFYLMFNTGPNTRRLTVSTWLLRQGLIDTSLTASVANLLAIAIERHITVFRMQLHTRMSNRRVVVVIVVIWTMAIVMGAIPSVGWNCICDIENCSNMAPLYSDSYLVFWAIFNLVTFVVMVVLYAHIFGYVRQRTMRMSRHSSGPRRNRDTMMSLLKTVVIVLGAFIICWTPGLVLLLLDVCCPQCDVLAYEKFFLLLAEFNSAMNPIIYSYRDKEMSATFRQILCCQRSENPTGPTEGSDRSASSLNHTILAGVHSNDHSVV

Regarding `CCCCCCCC/C=C\CCCCCCCC(=O)N[C@@H](COP(=O)(O)O)Cc1ccc(OCc2cc(OC)c3ccccc3n2)cc1`, the IC50 (in general, the concentration that gives 50% inhibition) in assay [1] turned out to be 962 nM; in assay [2], 1160 nM.

`CCCCCCCC/C=C\CCCCCCCC(=O)N[C@@H](Cc1ccc(OCc2ccccc2)cc1)CC(O)P(=O)(O)O` (stereo partly specified): the IC50 in assay [1] was found to be 4230 nM; in assay [2], 232 nM.

Regarding `CCCCCCCC/C=C\CCCCCCCC(=O)N[C@H](COP(=O)(O)O)Cc1ccc(OCc2ccncc2)cc1`, the values for the IC50 in assay [1] and in assay [2] were above 10000 nM and 6960 nM, respectively.

Regarding `CCCCCCCC/C=C\CCCCCCCC(=O)N[C@@H](COP(=O)(O)O)Cc1ccc(OCc2cc(OCC)ccn2)cc1`, the affinity in assay [3], expressed as Ki, was 26 nM. The IC50 amounted to 143 nM in assay [1] and 39 nM in assay [2].

On to `CCCCCCCC/C=C\CCCCCCCC(=O)N[C@H](COP(=O)(O)O)Cc1ccc(OCc2ncc(C)c(OC)c2C)cc1`, for which the results for the IC50 in assay [1] and in assay [2] were 3690 nM and 561 nM, respectively.

Take `CCCCCCCC/C=C\CCCCCCCC(=O)N[C@@H](COP(=O)(O)O)Cc1ccc(OCc2cc(OCCOC)ccn2)cc1`: the Ki (in general, a measure of affinity in units of concentration, obtained from inhibition or displacement) in assay [3] was 35 nM. The half-maximal inhibitory concentration (IC50) in assay [1] worked out at 114 nM; in assay [2], 423 nM.

With `CCCCCCCC/C=C\CCCCCCCC(=O)N[C@@H](COP(=O)(O)O)Cc1ccc(OCc2ccc3ccccc3n2)cc1`, the IC50 in assay [1] is 1430 nM; in assay [2] it was 533 nM.

Turning to `CCCCCCCC/C=C\CCCCCCCC(=O)N[C@@H](COP(=O)(O)O)Cc1ccc(OCc2cc(OC)ccn2)cc1`, the half-maximal inhibitory concentration (IC50) was determined as 6250 nM in assay [1] and 102 nM in assay [2].

Take `CCCCCCCC/C=C\CCCCCCCC(=O)N[C@H](COP(=O)(O)O)Cc1ccc(OCc2cc(OC)c3ccccc3n2)cc1`: the IC50 in assay [1] is above 10000 nM; in assay [2], 2600 nM.

In the case of `CCCCCCCC/C=C\CCCCCCCC(=O)N[C@H](COP(=O)(O)O)Cc1ccc(OCc2cccc(OC)n2)cc1`, the concentration for half-maximal inhibition (IC50) is above 10000 nM in assay [1] and 1090 nM in assay [2].

With `CCCCCCCC/C=C\CCCCCCCC(=O)N[C@H](COP(=O)(O)O)Cc1ccc(OCc2cccnc2)cc1`, the IC50 was found to be 4500 nM in assay [1] and 6240 nM in assay [2].

Take `CCCCCCCCCCCCCCCC(=O)N[C@H](CCP(=O)(O)O)Cc1ccc(OCc2ccccn2)cc1`: the 50% inhibitory concentration (IC50) in assay [1] was above 10000 nM; in assay [2] it was 1050 nM.

In assay [3], `CCCCCCCC/C=C\CCCCCCCC(=O)N[C@@H](COP(=O)(O)O)Cc1ccc(OCc2cc(OCC(F)(F)F)ccn2)cc1` yielded a Ki of 19 nM. Further, the IC50 in assay [1] worked out at 84 nM; in assay [2] it was 48 nM.

On to `CCCCCCCC/C=C\CCCCCCCC(=O)N[C@@H](CCP(=O)(O)O)Cc1ccc(OCc2ncc(C)c(OC)c2C)cc1`, for which the IC50 in assay [1] is above 10000 nM; in assay [2], 150 nM.

For the molecule `CCCCCCCC/C=C\CCCCCCCC(=O)N[C@@H](COP(=O)(O)O)Cc1ccc(OCc2cccnc2)cc1`, the IC50 was 992 nM in assay [1] and 1690 nM in assay [2].

As to `CCCCCCCC/C=C\CCCCCCCC(=O)N[C@@H](COP(=O)(O)O)Cc1ccc(OCc2ccncc2)cc1`, the IC50 was determined as 735 nM in assay [1] and 2080 nM in assay [2].

`CCCCCCCC/C=C\CCCCCCCC(=O)N[C@@H](COP(=O)(O)O)Cc1ccc(OCc2ccccn2)cc1` displayed an IC50 in assay [2] of 175 nM.

For `CCCCCCCC/C=C\CCCCCCCC(=O)N[C@@H](COP(=O)(O)O)Cc1ccc(OCc2cccc(OC)n2)cc1`, the results for the IC50 in assay [1] and in assay [2] were 2840 nM and 455 nM, respectively.

Molecule `CCCCCCCC/C=C\CCCCCCCC(=O)N[C@H](COP(=O)(O)O)Cc1ccc(OCc2ccccn2)cc1` yielded an IC50 in assay [2] of 940 nM.

With `CCCCCCCC/C=C\CCCCCCCC(=O)N[C@H](CCP(=O)(O)O)Cc1ccc(OCc2ncc(C)c(OC)c2C)cc1`, the IC50 in assay [1] is above 10000 nM; in assay [2], 4000 nM.

Turning to `CCCCCCCC/C=C\CCCCCCCC(=O)N[C@@H](CCP(=O)(O)O)Cc1ccc(OCc2ccccn2)cc1`, the IC50 in assay [1] and in assay [2] was above 10000 nM throughout.

As for `CCCCCCCC/C=C\CCCCCCCC(=O)N[C@@H](COP(=O)(O)O)Cc1ccc(OCc2cc(OCCC)ccn2)cc1`, the Ki in assay [3] was found to be 64 nM. Also, the results for the IC50 in assay [1] and in assay [2] were 141 nM and 1660 nM, respectively.

Consider `CCCCCCCC/C=C\CCCCCCCC(=O)N[C@@H](COP(=O)(O)O)Cc1ccc(OCc2ncc(C)c(OC)c2C)cc1`, for which the Ki in assay [3] stood at 28 nM. The IC50 came out at 62 nM in assay [1] and 39 nM in assay [2].

On to `CCCCCCCC/C=C\CCCCCCCC(=O)N[C@H](CCP(=O)(O)O)Cc1ccc(OCc2ccccn2)cc1`, for which the IC50 in assay [1] and in assay [2] was above 10000 nM each time.
